Where “and” joins values, the source holds several entries; their conditions need not be identical. Identical values can stand only once.
Experiments:
[1] = oral; cited from earlier work
[2] = Pharmacokinetics after 24-hour subcutaneous infusion via fluid delivery device in male Beagle dogs (plasma, LC-MS/MS); settings: for AUC(0-t): AUClast; for MRT last: MRTlast
[3] = Group 1, SC infusion 40 mg/animal, individual animals
[4] = SC infusion 76 mg/animal, individual animals
[5] = dogs, 40 mg/24 h and 76 mg/24 h SC infusion, both dosages
[6] = male, Beagle, dog, in vivo, sc, 3.21 mg/kg, Group 1, SC infusion, dose 3.21 mg/kg, mean
[7] = male, Beagle, dog, in vivo, sc, 5.45 mg/kg, Group 2, SC infusion, dose 5.45 mg/kg, mean
[8] = male, Beagle, dog, in vivo, sc, 40 mg, Group 1, SC infusion 40 mg/animal, mean
[9] = male, Beagle, dog, in vivo, sc, 40 mg/animal, Plasma concentration of CBD, Group 1, SC infusion 40 mg/animal, individual animals, BLOQ = below 1 ng/mL
[10] = male, Beagle, dog, in vivo, sc, 40 mg/animal, Plasma concentration of CBD, Group 1, SC infusion 40 mg/animal, mean (BLOQ samples excluded)
[11] = male, Beagle, dog, in vivo, sc, 76 mg, SC infusion 76 mg/animal, mean
[12] = male, Beagle, dog, in vivo, sc, 76 mg/animal, Plasma concentration of CBD, SC infusion 76 mg/animal, individual animals, BLOQ = below 1 ng/mL
[13] = male, Beagle, dog, in vivo, sc, 76 mg/animal, Plasma concentration of CBD, SC infusion 76 mg/animal, mean (BLOQ samples excluded)

C=C(C)[C@@H]1CCC(C)=C[C@H]1c1c(O)cc(CCCCC)cc1O [CBD, Cannabidiol]
Fraction lost in the liver through the digestion [1]: approximately 94% | AUClast [2, 3]: 363 ng·h/mL and 19.9 ng·h/mL and 127 ng·h/mL and 371 ng·h/mL | Cmax [2, 3]: 14.2 ng/mL (2×) and 5.34 ng/mL and 5.83 ng/mL | MRTlast [2, 3]: 26.0 h and 3.61 h and 16.3 h | tmax [2, 3]: 30.0 hr (3×) and 3.00 hr | Cmax ([2]; Group 1, SC infusion, dose 3.21 mg/kg, mean): 9.92 ng(mL | Cmax ([2]; Group 2, SC infusion, dose 5.45 mg/kg, mean): 11.7 ng(mL | AUClast [2, 4]: 217 ng·h/mL and 493 ng·h/mL and 129 ng·h/mL and 372 ng·h/mL | Cmax [2, 4]: 10.3 ng/mL and 17.5 ng/mL and 5.24 ng/mL and 13.6 ng/mL | MRTlast [2, 4]: 30.4 h and 18.9 h and 21.5 h | tmax [2, 4]: 24.0 hr (2×) and 2.00 hr and 18.0 hr | Absorption: first detection of CBD levels in blood [2, 5]: detected within an hour of the beginning of infusion | Elimination: CBD detectability after end of infusion [2, 5]: still detectable 24 h after completion of fluid delivery device infusion | Constancy of CBD concentration in the blood ([2]; group 1 (40 mg CBD/animal) and group 2 (76 mg CBD/animal), FIGS. 24 and 25): constant concentration of CBD in the blood with a minimal variation is reached after few hours | AUC(0-t) [2, 6]: 221 ng·h/mL | MRT last [2, 6]: 17.6 h | tmax ([2]; male, Beagle, dog, in vivo, sc, 3.21 mg/kg, Tmax, Group 1, SC infusion, dose 3.21 mg/kg, mean): 23.3 h | AUC(0-t) [2, 7]: 303 ng·h/mL | MRT last [2, 7]: 24.3 h | tmax ([2]; male, Beagle, dog, in vivo, sc, 5.45 mg/kg, Tmax, Group 2, SC infusion, dose 5.45 mg/kg, mean): 17 h | AUC(0-t) [2, 8]: 221 ng·h/mL | Cmax ([2]; male, Beagle, dog, in vivo, sc, 40 mg, Cmax, Group 1, SC infusion 40 mg/animal, mean): 9.92 ng/mL | MRT last [2, 8]: 17.6 h | tmax ([2]; male, Beagle, dog, in vivo, sc, 40 mg, tmax, Group 1, SC infusion 40 mg/animal, mean): 23.3 h | concentration at 0.083 h ([2]; male, Beagle, dog, in vivo, sc, 40 mg/animal, Plasma concentration of CBD, Group 1, SC infusion 40 mg/animal, 0.083 hr, individual animals, BLOQ = below 1 ng/mL): 5.76 ng/mL | concentration at 0.5 h ([2]; male, Beagle, dog, in vivo, sc, 40 mg/animal, Plasma concentration of CBD, Group 1, SC infusion 40 mg/animal, 0.5 hr, mean (BLOQ samples excluded)): 3.28 ng/mL | concentration at 0.75 h [2, 9]: 2.83 ng/mL | concentration at 0.75 h [2, 10]: 2.45 ng/mL | concentration at 1 h [2, 10]: 2.63 ng/mL | concentration at 2 h [2, 10]: 3.72 ng/mL | concentration at 3 h [2, 10]: 7.36 ng/mL | concentration at 4 h [2, 10]: 4.1 ng/mL | concentration at 5 h [2, 10]: 5.11 ng/mL | concentration at 6 h [2, 10]: 6.12 ng/mL | concentration at 7 h [2, 10]: 5.53 ng/mL | concentration at 8 h [2, 9]: 5.06 ng/mL | concentration at 8 h [2, 10]: 6.03 ng/mL | concentration at 10 h [2, 10]: 5.92 ng/mL | concentration at 12 h [2, 9]: 4.47 ng/mL | concentration at 12 h [2, 10]: 5.12 ng/mL | concentration at 18 h [2, 9]: 3.31 ng/mL | concentration at 24 h [2, 9]: 9.48 ng/mL | concentration at 24 h [2, 10]: 8.82 ng/mL | concentration at 30 h [2, 10]: 11.4 ng/mL | concentration at 36 h ([2]; male, Beagle, dog, in vivo, sc, 40 mg/animal, Plasma concentration of CBD, Group 1, SC infusion 40 mg/animal, 36 hr, individual animals, BLOQ = below 1 ng/mL): 9.05 ng/mL | concentration at 36 h ([2]; male, Beagle, dog, in vivo, sc, 40 mg/animal, Plasma concentration of CBD, Group 1, SC infusion 40 mg/animal, 36 hr, mean (BLOQ samples excluded)): 7.59 ng/mL | concentration at 48 h ([2]; male, Beagle, dog, in vivo, sc, 40 mg/animal, Plasma concentration of CBD, Group 1, SC infusion 40 mg/animal, 48 hr, individual animals, BLOQ = below 1 ng/mL): 4.2 ng/mL | concentration at 48 h ([2]; male, Beagle, dog, in vivo, sc, 40 mg/animal, Plasma concentration of CBD, Group 1, SC infusion 40 mg/animal, 48 hr, mean (BLOQ samples excluded)): 5.15 ng/mL | AUC(0-t) [2, 11]: 303 ng·h/mL | Cmax ([2]; male, Beagle, dog, in vivo, sc, 76 mg, Cmax, SC infusion 76 mg/animal, mean): 11.7 ng/mL | MRT last ([2]; male, Beagle, dog, in vivo, sc, 76 mg, SC infusion 76 mg/animal, individual animals): 26.5 h | MRT last [2, 11]: 24.3 h | tmax ([2]; male, Beagle, dog, in vivo, sc, 76 mg, tmax, SC infusion 76 mg/animal, mean): 17 h | concentration at 1 h [2, 12]: 3.73 ng/mL | concentration at 1 h [2, 13]: 5.31 ng/mL | concentration at 2 h [2, 12]: 3.69 ng/mL | concentration at 2 h [2, 13]: 4.97 ng/mL | concentration at 3 h [2, 13]: 4.38 ng/mL | concentration at 4 h [2, 13]: 3.31 ng/mL | concentration at 5 h [2, 12]: 2.42 ng/mL | concentration at 5 h [2, 13]: 2.17 ng/mL | concentration at 6 h [2, 13]: 5.35 ng/mL | concentration at 7 h [2, 13]: 4.78 ng/mL | concentration at 8 h [2, 13]: 5.14 ng/mL | concentration at 10 h [2, 13]: 4.19 ng/mL | concentration at 12 h [2, 13]: 6.03 ng/mL | concentration at 18 h [2, 13]: 5.93 ng/mL | concentration at 24 h [2, 13]: 9.68 ng/mL | concentration at 30 h [2, 13]: 9.04 ng/mL | concentration at 36 hr ([2]; male, Beagle, dog, in vivo, sc, 76 mg/animal, Plasma concentration of CBD, SC infusion 76 mg/animal, 36 hr, mean (BLOQ samples excluded)): 6.04 ng/mL | concentration at 48 hr ([2]; male, Beagle, dog, in vivo, sc, 76 mg/animal, Plasma concentration of CBD, SC infusion 76 mg/animal, 48 hr, mean (BLOQ samples excluded)): 8.32 ng/mL

— US12576093B2, “Pharmaceutical composition for subcutaneous administration” (MANNKIND CORPORATION, priority 2019, dated 2026)
